According to US20110091570A1, “Compositions and Devices for Antisepsis and Anticoagulation” (priority 2008, published 2011):
Several values for one entry are separate records, joined by “and”; a condition that tells them apart may be missing. Equal values may be shown once.

Assays:
citrate blood [1] = assay: Activated partial thromboplastin time (aPTT), Pathromtin SL test; assay type: biochemical, human
Procedure: (§1) Whole blood was taken from volunteers and enriched with trisodium citrate (0.3 mL of a 0.106 molar solution per 3 mL whole blood) (S-Monovette®, Sarstedt, Nümbrecht, Germany). Routine coagulation tests were performed on the following samples:
(§2) The following commercial coagulation tests were performed according to the prescription of the manufacturer: prothrombin time (PT) was determined using Thromborel® S test (Dade Behring GmbH, Marburg, Germany); activated partial thromboplastin time (aPTT) was determined using Pathromtin* SL test (Dade Behring GmbH, Marburg, Germany); and thrombin time (TT) was determined using BC Thrombin Reagent test (Dade Behring GmbH, Marburg, Germany).
(§3) Whole blood was taken from a single volunteer and enriched with trisodium citrate (0.3 mL of a 0.106 molar solution per 3 mL whole blood) (S-Monovette®, Sarstedt, Nümbrecht, Germany). Portions of 1.8 mL citrate blood were mixed with 0.2 mL NCT in 0.9% saline. The following final (after dilution in blood) NCT concentrations were tested separately: 1% (55 mM); 0.5% (27.5 mM); 0.25% (13.75 mM); 0.1% (5.5 mM); 0.05% (2.75 mM); 0.025% (1.375 mM); and 0.01% (0.55 mM). A control without NCT was performed in parallel. The following commercial coagulation tests were performed according to the prescription of the manufacturer: prothrombin time (PT) was determined using Thromborel® S test (Dade Behring GmbH, Marburg, Germany), activated partial thromboplastin time (aPTT) was determined using Pathromtin* SL test (Dade Behring GmbH, Marburg, Germany); thrombin time (TT) was determined using BC Thrombin Reagent test (Dade Behring GmbH, Marburg, Germany); and fibrinogen was determined using Multifibren* U test (Dade Behring GmbH, Marburg, Germany).
(§4) Whole blood was taken from 11 volunteers and enriched with trisodium citrate (0.3 mL of a 0.106 molar solution per 3 mL whole blood) (S-Monovette®, Sarstedt, Nümbrecht, Germany). Commercial coagulation tests (as described in Example 6) were performed with the following samples: […]

Antithrombin III = Antithrombin III in citrate blood; assay type: biochemical, human; details: Example 7, 0.25 IE heparin
Procedure: as §4

citrate blood [2] = assay: International normalized ratio (INR); assay type: biochemical, human; details: Example 7, 0.25 IE heparin
Procedure: as §4

Fibrinogen = biological target: T1, Fibrinogen (Homo sapiens, UniProt P02671+P02675+P02679); assay: Fibrinogen, Multifibren U test; assay type: biochemical; details: Example 7, 0.25 IE heparin
T1 construct: from tissue; host or cells: citrated whole blood of volunteers
T1 sequence (P02671 20-629 limits assumed): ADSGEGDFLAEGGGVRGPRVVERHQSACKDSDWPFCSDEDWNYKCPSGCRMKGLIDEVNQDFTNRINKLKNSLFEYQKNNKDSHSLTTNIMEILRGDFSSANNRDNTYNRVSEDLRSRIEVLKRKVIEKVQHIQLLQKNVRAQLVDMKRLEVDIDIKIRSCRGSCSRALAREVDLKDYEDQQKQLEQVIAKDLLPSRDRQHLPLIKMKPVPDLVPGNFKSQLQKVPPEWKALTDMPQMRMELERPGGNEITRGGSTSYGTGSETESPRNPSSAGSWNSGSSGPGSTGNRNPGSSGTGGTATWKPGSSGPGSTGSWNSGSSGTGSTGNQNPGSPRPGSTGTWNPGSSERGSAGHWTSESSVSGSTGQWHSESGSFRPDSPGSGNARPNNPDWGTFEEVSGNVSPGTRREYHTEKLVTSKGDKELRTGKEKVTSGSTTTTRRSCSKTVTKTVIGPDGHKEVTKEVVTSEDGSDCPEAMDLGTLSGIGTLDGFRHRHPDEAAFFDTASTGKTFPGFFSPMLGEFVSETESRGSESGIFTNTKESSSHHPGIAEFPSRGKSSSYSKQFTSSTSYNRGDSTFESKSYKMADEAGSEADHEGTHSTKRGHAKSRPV
T1 sequence (P02675 31-491): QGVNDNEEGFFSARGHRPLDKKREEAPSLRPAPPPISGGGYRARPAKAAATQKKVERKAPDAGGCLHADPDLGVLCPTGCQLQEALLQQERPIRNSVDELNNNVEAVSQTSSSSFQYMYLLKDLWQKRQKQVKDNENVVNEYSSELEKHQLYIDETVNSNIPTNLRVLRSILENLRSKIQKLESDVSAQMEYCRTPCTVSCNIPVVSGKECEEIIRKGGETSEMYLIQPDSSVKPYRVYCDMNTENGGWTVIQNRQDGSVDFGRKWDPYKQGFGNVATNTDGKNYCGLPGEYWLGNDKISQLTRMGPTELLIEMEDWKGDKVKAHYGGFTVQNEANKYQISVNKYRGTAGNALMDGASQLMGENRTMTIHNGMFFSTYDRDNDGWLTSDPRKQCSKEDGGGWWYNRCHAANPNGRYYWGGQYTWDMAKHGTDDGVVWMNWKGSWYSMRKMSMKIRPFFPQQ
T1 sequence (P02679 27-453): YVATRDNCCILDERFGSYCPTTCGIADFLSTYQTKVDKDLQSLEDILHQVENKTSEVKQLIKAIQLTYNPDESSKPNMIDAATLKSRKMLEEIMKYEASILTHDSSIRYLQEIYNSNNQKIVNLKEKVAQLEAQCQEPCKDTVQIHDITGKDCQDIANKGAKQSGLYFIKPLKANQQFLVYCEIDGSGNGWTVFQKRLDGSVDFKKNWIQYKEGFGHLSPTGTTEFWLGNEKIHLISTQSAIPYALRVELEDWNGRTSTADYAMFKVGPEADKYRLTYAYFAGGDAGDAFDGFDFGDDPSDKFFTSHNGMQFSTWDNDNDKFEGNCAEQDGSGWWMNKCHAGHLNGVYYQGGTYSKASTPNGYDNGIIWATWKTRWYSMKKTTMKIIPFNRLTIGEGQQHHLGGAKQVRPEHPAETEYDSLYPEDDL
Procedure: as §3, §4

citrate blood [3] = assay: Prothrombin time (PT), Thromborel S test; assay type: biochemical, human; details: Example 7, 0.25 IE heparin
Procedure: as §1, §2, §3, §4

citrate blood [4] = assay: Thrombin time (TT), BC Thrombin Reagent test; assay type: biochemical, human; details: Example 7, 0.25 IE heparin
Procedure: as §1, §2, §3, §4

D-Dimer = D-Dimer in citrate blood; assay type: biochemical, human; details: Example 7, 0.25 IE heparin
Procedure: as §4

infected injuries = details: applied intravenously [Ref. 1]; cited from earlier work

Row | Molecule | activated partial thromboplastin time (citrate blood [1]; Example 5, citrate blood plus 0.25 IE heparin, increased from 36) | Activated partial thromboplastin time (aPTT) (citrate blood [1]; Example 7, 0.25 IE heparin, individual subjects 1-11) | Activated partial thromboplastin time (aPTT), mean value (citrate blood [1]; Example 7, 0.25 IE heparin, mean of 11 subjects) | Antithrombin III (Antithrombin III; individual subjects 1-11) | Antithrombin III, mean value (Antithrombin III; mean of 11 subjects) | International normalized ratio (INR) (citrate blood [2]; individual subjects 1-11) | International normalized ratio (INR), mean value (citrate blood [2]; mean of 11 subjects) | Fibrinogen (Fibrinogen; individual subjects 1-11) | Fibrinogen, mean value (Fibrinogen; mean of 11 subjects) | Prothrombin time (PT) (citrate blood [3]; individual subjects 1-11) | Prothrombin time (PT), mean value (citrate blood [3]; mean of 11 subjects) | Thrombin time (TT) (citrate blood [4]; individual subjects) | Thrombin time (TT), mean value (citrate blood [4]; mean of 11 subjects) | D-Dimer (D-Dimer; individual subjects 1-11) | D-Dimer, mean value (D-Dimer; mean of 11 subjects) | side effects of intravenous application (infected injuries)
1 | heparin [reference compound] | 56 s | 283 s and 187 s and 135 s and 177 s and 375 s and 300 s and 400 s and 216 s and 284 s and 195 s and 169 s | 247.4 s | 93% and 79% and 99% and 83% (2×) and 81% (2×) and 88% and 113% and 75% and 94% | 88.1% | 1.2 (6×) and 1.3 (2×) and 1.1 (2×) and 1.4 | 1.2 | 214 mg/dL and 155 mg/dL and 313 mg/dL and 153 mg/dL and 234 mg/dL and 236 mg/dL and 379 mg/dL and 309 mg/dL and 259 mg/dL and 283 mg/dL and 249 mg/dL | 253.1 mg/dL | 66% and 58% and 89% (2×) and 62% and 74% and 54% and 69% and 78% and 68% and 72% | 70.8% | 400 s | 400.0 s | 217 µg/L and 199 µg/L and 353 µg/L and 146 µg/L and 76 µg/L and 183 µg/L and 285 µg/L and 159 µg/L and 150 µg/L and 203 µg/L and 157 µg/L | 193.5 µg/L | 
2 | Cc1ccc(S(=O)(=O)[N-]Cl)cc1.[Na+] [chloramine T] |  |  |  |  |  |  |  |  |  |  |  |  |  |  |  | severe side effects such as pericardial and lung edema
